The text below walks through data of US20160297833A1, “THIENOPYRIMIDINES AS MKNK1 AND MKNK2 INHIBITORS” (BAYER PHARMA AKTIENGESELLSCHAFT, priority 2013, published 2016).

The target in the assay is T1, human full-length MKNK1 (Homo sapiens, UniProt Q9BUB5, T385D).
T1 construct: GST (N); purchased Carna Biosciences 02-145; host or cells: insect cells (baculovirus expression system)
Briefly: MKNK1 kinase high ATP assay (TR-FRET). The class given is biochemical. The settings on record: for Activity-Ratio MKNK1: Table 2, ratio of the IC50-value of an R-enantiomer and its corresponding S-enantiomer. The gist of the method: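 Full-length human MKNK1 (T385D) preincubated 15 min at 22 °C with compound in HEPES pH 7.5/MgCl2/DTT buffer; reaction with 2 mM ATP (final) and 0.06 μM biotinylated peptide (final), 30 min at 22 °C.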

[1] abbreviates: Table 1, MKNK1 kinase high ATP assay, 2 mM ATP, read-out: MKNK1 IC50.

SMILES strings stand for the structures. pIC50: −log10 of the molar value. Like-named read-outs stand apart in the source and are kept apart here.

T1 sequence (Q9BUB5 1-424 isoform Q9BUB5-2 T344D): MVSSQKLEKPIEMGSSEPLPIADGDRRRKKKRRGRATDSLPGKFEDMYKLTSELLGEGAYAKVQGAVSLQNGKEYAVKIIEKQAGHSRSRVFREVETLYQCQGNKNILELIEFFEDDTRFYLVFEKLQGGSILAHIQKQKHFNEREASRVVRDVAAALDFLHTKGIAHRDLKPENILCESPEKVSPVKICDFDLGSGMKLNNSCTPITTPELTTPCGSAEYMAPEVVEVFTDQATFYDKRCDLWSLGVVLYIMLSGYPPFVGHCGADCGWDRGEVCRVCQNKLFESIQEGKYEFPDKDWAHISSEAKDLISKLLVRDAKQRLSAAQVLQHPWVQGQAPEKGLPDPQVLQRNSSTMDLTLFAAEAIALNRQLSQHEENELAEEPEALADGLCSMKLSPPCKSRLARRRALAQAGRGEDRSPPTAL

Consider `CCOc1cc2[nH]ncc2cc1Nc1ncnc2sc3c(c12)CC[C@H](C(=O)N(C)CCC(F)(F)F)C3` [Example 66, (7S)-4-[(6-Ethoxy-1H-indazol-5-yl)amino]-N-methyl-N-(3,3,3-trifluoropropyl)-5,6,7,8-tetrahydro[1]benzothieno[2,3-d]pyrimidine-7-carboxamide], for which the pIC50 (in general, the IC50 on a negative log10 scale, so that one unit is a factor of ten) under setting [1] is 9.40; the pIC50 (Table 3, example numbers of WO2013/174744(A1), not of this patent, pure enantiomer from chiral HPLC, absolute configuration at amide 'R or S', read-out: MKNK1 IC50) was 8.77; the pIC50 (Table 3, example numbers of WO2013/174744(A1), not of this patent, pure enantiomer from chiral HPLC, absolute configuration at amide 'S or R', read-out: MKNK1 IC50) was 9.05. Besides, the “Activity Ratio MKNK1” value (Table 3, example numbers of WO2013/174744(A1), ratio of the IC50 values of the two enantiomers) is listed as 1.9.

Regarding `CCOc1cc2[nH]ncc2cc1Nc1ncnc2sc3c(c12)CC[C@H](C(=O)N1CCCC1)C3` [Example 67, {(7S)-4-[(6-Ethoxy-1H-indazol-5-yl)amino]-5,6,7,8-tetrahydro[1]benzothieno[2,3-d]pyrimidin-7-yl}(pyrrolidin-1-yl)methanone], the pIC50 under setting [1] was 9.52. As for `CCOc1cc2[nH]ncc2cc1Nc1ncnc2sc3c(c12)CC[C@H](C(=O)N1CCC(=O)CC1)C3` [Example 68, 1-({(7S)-4-[(6-Ethoxy-1H-indazol-5-yl)amino]-5,6,7,8-tetrahydro[1]benzothieno[2,3-d]pyrimidin-7-yl}carbonyl)piperidin-4-one], the pIC50 was 9.52 and the “Activity-Ratio MKNK1” value was determined as 9.0. As to `CCOc1cc2[nH]ncc2cc1Nc1ncnc2sc3c(c12)CC[C@@H](C(=O)N1CCC(=O)CC1)C3` [Example 69, 1-({(7R)-4-[(6-Ethoxy-1H-indazol-5-yl)amino]-5,6,7,8-tetrahydro[1]benzothieno[2,3-d]pyrimidin-7-yl}carbonyl)piperidin-4-one], the negative logarithm of the IC50 (pIC50) is 8.60. `CCOc1cc2[nH]ncc2cc1Nc1ncnc2sc3c(c12)CC[C@H](C(=O)N1C[C@@H]2C[C@H]1CO2)C3` [Example 70, {(7S)-4-[(6-Ethoxy-1H-indazol-5-yl)amino]-5,6,7,8-tetrahydro[1]benzothieno[2,3-d]pyrimidin-7-yl}[(1S,4S)-2-oxa-5-azabicyclo[2.2.1]hept-5-yl]methanone]: the pIC50 under setting [1] is 9.40.

Regarding `CCOc1cc2[nH]ncc2cc1Nc1ncnc2sc3c(c12)CC[C@H](C(=O)N1C[C@H]2C[C@@H]1CO2)C3` [Example 71, {(7S)-4-[(6-Ethoxy-1H-indazol-5-yl)amino]-5,6,7,8-tetrahydro[1]benzothieno[2,3-d]pyrimidin-7-yl}[(1R,4R)-2-oxa-5-azabicyclo[2.2.1]hept-5-yl]methanone], the pIC50 under setting [1] was 9.05. As for `CCOc1cc2[nH]ncc2cc1Nc1ncnc2sc3c(c12)CC[C@H](C(=O)N1CC2(COC2)C1)C3` [Example 72, {(7S)-4-[(6-Ethoxy-1H-indazol-5-yl)amino]-5,6,7,8-tetrahydro[1]benzothieno[2,3-d]pyrimidin-7-yl}(2-oxa-6-azaspiro[3.3]hept-6-yl)methanone], under setting [1], the pIC50 was 9.15.

`CCOc1cc2[nH]ncc2cc1Nc1ncnc2sc3c(c12)CC[C@H](C(=O)N(C)CCO)C3` [Example 73, (7S)-4-[(6-Ethoxy-1H-indazol-5-yl)amino]-N-(2-hydroxyethyl)-N-methyl-5,6,7,8-tetrahydro[1]benzothieno[2,3-d]pyrimidine-7-carboxamide]: the pIC50 under setting [1] is 9.52.

For the molecule `CCOc1cc2[nH]ncc2cc1Nc1ncnc2sc3c(c12)CC[C@H](C(=O)N(C)CC(C)(C)O)C3` [Example 74, (7S)-4-[(6-Ethoxy-1H-indazol-5-yl)amino]-N-(2-hydroxy-2-methylpropyl)-N-methyl-5,6,7,8-tetrahydro[1]benzothieno[2,3-d]pyrimidine-7-carboxamide], the negative-log IC50 (pIC50) under setting [1] was 9.70. As for `CCOc1cc2[nH]ncc2cc1Nc1ncnc2sc3c(c12)CC[C@H](C(=O)N1C[C@@H](O)[C@H](O)C1)C3` [Example 75, [(3R,4R)-3,4-Dihydroxypyrrolidin-1-yl]{(7S)-4-[(6-ethoxy-1H-indazol-5-yl)amino]-5,6,7,8-tetrahydro[1]benzothieno[2,3-d]pyrimidin-7-yl}methanone], under setting [1], the pIC50 is 9.52. Still for that read-out and setting: for `CCOc1cc2[nH]ncc2cc1Nc1ncnc2sc3c(c12)CC[C@H](C(=O)N1C[C@H](O)[C@@H](O)C1)C3` [Example 76, [(3S,4S)-3,4-Dihydroxypyrrolidin-1-yl]{(7S)-4-[(6-ethoxy-1H-indazol-5-yl)amino]-5,6,7,8-tetrahydro[1]benzothieno[2,3-d]pyrimidin-7-yl}methanone] the value was 9.40. As for `CCOc1cc2[nH]ncc2cc1Nc1ncnc2sc3c(c12)CC[C@H](C(=O)N(CCO)CCO)C3` [Example 77, (7S)-4-[(6-Ethoxy-1H-indazol-5-yl)amino]-N,N-bis(2-hydroxyethyl)-5,6,7,8-tetrahydro[1]benzothieno[2,3-d]pyrimidine-7-carboxamide], the pIC50 under setting [1] is 10.00.

As for `CC(C)Oc1cc2[nH]ncc2cc1Nc1ncnc2sc3c(c12)CC[C@H](C(=O)N(C)C)C3` [Example 78, (7S)—N,N-Dimethyl-4-{[6-(propan-2-yloxy)-1H-indazol-5-yl]amino}-5,6,7,8-tetrahydro[1]benzothieno[2,3-d]pyrimidine-7-carboxamide], the “Activity-Ratio MKNK1” value was found to be 42.9. Further, the pIC50 under setting [1] is 9.52. Consider `CC(C)Oc1cc2[nH]ncc2cc1Nc1ncnc2sc3c(c12)CC[C@@H](C(=O)N(C)C)C3` [Example 79, (7R)—N,N-Dimethyl-4-{[6-(propan-2-yloxy)-1H-indazol-5-yl]amino}-5,6,7,8-tetrahydro[1]benzothieno[2,3-d]pyrimidine-7-carboxamide], for which the pIC50 under setting [1] is 7.92. The same measure, in the same setting: next, `CCN(C(=O)[C@H]1CCc2c(sc3ncnc(Nc4cc5cn[nH]c5cc4OC(C)C)c23)C1)C(C)C` [Example 80, (7S)—N-Ethyl-N-(propan-2-yl)-4-{[6-(propan-2-yloxy)-1H-indazol-5-yl]amino}-5,6,7,8-tetrahydro[1]benzothieno[2,3-d]pyrimidine-7-carboxamide]: 9.52. `CC(C)Oc1cc2[nH]ncc2cc1Nc1ncnc2sc3c(c12)CC[C@H](C(=O)N(C)CC(F)F)C3` [Example 81, (7S)—N-(2,2-Difluoroethyl)-N-methyl-4-{[6-(propan-2-yloxy)-1H-indazol-5-yl]amino}-5,6,7,8-tetrahydro[1]benzothieno[2,3-d]pyrimidine-7-carboxamide]: the “Activity-Ratio MKNK1” value was determined as 27.5. Moreover, the pIC50 under setting [1] is 9.52.

Consider `CC(C)Oc1cc2[nH]ncc2cc1Nc1ncnc2sc3c(c12)CC[C@@H](C(=O)N(C)CC(F)F)C3` [Example 82, (7R)—N-(2,2-Difluoroethyl)-N-methyl-4-{[6-(propan-2-yloxy)-1H-indazol-5-yl]amino}-5,6,7,8-tetrahydro[1]benzothieno[2,3-d]pyrimidine-7-carboxamide], for which the pIC50 under setting [1] was 8.09. The same measure, in the same setting: next, `CC(C)Oc1cc2[nH]ncc2cc1Nc1ncnc2sc3c(c12)CC[C@H](C(=O)N1CCCC1)C3` [Example 83, [(7S)-4-{[6-(Propan-2-yloxy)-1H-indazol-5-yl]amino}-5,6,7,8-tetrahydro[1]benzothieno[2,3-d]pyrimidin-7-yl](pyrrolidin-1-yl)methanone]: 9.52.

Turning to `CC(C)Oc1cc2[nH]ncc2cc1Nc1ncnc2sc3c(c12)CC[C@H](C(=O)N1CCOC[C@@H]1C)C3` [Example 84, [(3S)-3-Methylmorpholin-4-yl][(7S)-4-{[6-(propan-2-yloxy)-1H-indazol-5-yl]amino}-5,6,7,8-tetrahydro[1]benzothieno[2,3-d]pyrimidin-7-yl]methanone], under setting [1], the pIC50 is 9.15.

As to `CC(C)Oc1cc2[nH]ncc2cc1Nc1ncnc2sc3c(c12)CC[C@H](C(=O)N1CCOC[C@H]1C)C3` [Example 85, [(3R)-3-Methylmorpholin-4-yl][(7S)-4-{[6-(propan-2-yloxy)-1H-indazol-5-yl]amino}-5,6,7,8-tetrahydro[1]benzothieno[2,3-d]pyrimidin-7-yl]methanone], under setting [1], the pIC50 was 9.22. The same measure, in the same setting: for `CC(C)Oc1cc2[nH]ncc2cc1Nc1ncnc2sc3c(c12)CC[C@H](C(=O)N1C[C@@H]2C[C@H]1CO2)C3` [Example 86, (1S,4S)-2-Oxa-5-azabicyclo[2.2.1]hept-5-yl[(7S)-4-{[6-(propan-2-yloxy)-1H-indazol-5-yl]amino}-5,6,7,8-tetrahydro[1]benzothieno[2,3-d]pyrimidin-7-yl]methanone] the value was 9.22. In the case of `CC(C)Oc1cc2[nH]ncc2cc1Nc1ncnc2sc3c(c12)CC[C@H](C(=O)N1C[C@H]2C[C@@H]1CO2)C3` [Example 87, (1R,4R)-2-Oxa-5-azabicyclo[2.2.1]hept-5-yl[(7S)-4-{[6-(propan-2-yloxy)-1H-indazol-5-yl]amino}-5,6,7,8-tetrahydro[1]benzothieno[2,3-d]pyrimidin-7-yl]methanone], the pIC50 under setting [1] was 9.52. Consider `CC(C)Oc1cc2[nH]ncc2cc1Nc1ncnc2sc3c(c12)CC[C@H](C(=O)N1CC2(COC2)C1)C3` [Example 88, 2-Oxa-6-azaspiro[3.3]hept-6-yl[(7S)-4-{[6-(propan-2-yloxy)-1H-indazol-5-yl]amino}-5,6,7,8-tetrahydro[1]benzothieno[2,3-d]pyrimidin-7-yl]methanone], for which the “Activity-Ratio MKNK1” value is recorded as 15.0. Moreover, under setting [1], the pIC50 is 9.40. With `CC(C)Oc1cc2[nH]ncc2cc1Nc1ncnc2sc3c(c12)CC[C@@H](C(=O)N1CC2(COC2)C1)C3` [Example 89, 2-Oxa-6-azaspiro[3.3]hept-6-yl[(7R)-4-{[6-(propan-2-yloxy)-1H-indazol-5-yl]amino}-5,6,7,8-tetrahydro[1]benzothieno[2,3-d]pyrimidin-7-yl]methanone], the pIC50 under setting [1] is 8.22. Still for that read-out and setting: for `CC(C)Oc1cc2[nH]ncc2cc1Nc1ncnc2sc3c(c12)CC[C@H](C(=O)N(C)CCO)C3` [Example 90, (7S)—N-(2-Hydroxyethyl)-N-methyl-4-{[6-(propan-2-yloxy)-1H-indazol-5-yl]amino}-5,6,7,8-tetrahydro[1]benzothieno[2,3-d]pyrimidine-7-carboxamide] the value was 9.22.
